Values joined by “and” are separate entries in the source; they are usually repeats but may differ in a detail not shown here. Identical values can stand only once. Numbers after ± are expanded uncertainties.
Settings: Liquid; for speed of sound: Frequency=5 MHz, Pulse-echo method; for mass density: Vibrating tube method

CCCCCCCCC [nonane]
Settings | mass density | speed of sound
373.14 K, 360090 kPa | – | 2160.1 ± 2.6 m/s
373.14 K, 389860 kPa | – | 2212.9 ± 2.7 m/s
373.15 K, 1010 kPa | 654.52 ± 0.63 kg/m3 | –
373.15 K, 5050 kPa | 659.99 ± 0.64 kg/m3 | –
373.15 K, 10030 kPa | 666.13 ± 0.66 kg/m3 | –
373.15 K, 15070 kPa | 671.78 ± 0.69 kg/m3 | –
373.15 K, 20030 kPa | 677.04 ± 0.71 kg/m3 | –
373.15 K, 25060 kPa | 681.94 ± 0.74 kg/m3 | –
373.15 K, 30040 kPa | 686.51 ± 0.77 kg/m3 | –
373.15 K, 35060 kPa | 690.83 ± 0.8 kg/m3 | –
373.15 K, 40020 kPa | 694.95 ± 0.83 kg/m3 | –
373.15 K, 45070 kPa | 698.87 ± 0.86 kg/m3 | –
373.15 K, 50070 kPa | 702.65 ± 0.9 kg/m3 | –
373.15 K, 55060 kPa | 706.23 ± 0.93 kg/m3 | –
373.15 K, 60040 kPa | 709.66 ± 0.96 kg/m3 | –
373.15 K, 65030 kPa | 712.95 ± 1 kg/m3 | –
398.14 K, 1100 kPa | – | 835.44 ± 1.9 m/s and 835.46 ± 1.9 m/s
398.14 K, 30140 kPa | – | 1079.8 ± 1.8 m/s
398.14 K, 60240 kPa | – | 1254.1 ± 1.7 m/s
398.14 K, 90220 kPa | – | 1391.9 ± 1.8 m/s
398.14 K, 120200 kPa | – | 1508.5 ± 1.8 m/s
398.14 K, 150150 kPa | – | 1610.2 ± 2 m/s
398.14 K, 180170 kPa | – | 1701.7 ± 2.1 m/s
398.14 K, 210020 kPa | – | 1784.3 ± 2.2 m/s
398.14 K, 240150 kPa | – | 1861.3 ± 2.3 m/s
398.14 K, 270210 kPa | – | 1933.1 ± 2.4 m/s
398.14 K, 299860 kPa | – | 1999.6 ± 2.5 m/s
398.14 K, 330010 kPa | – | 2063.7 ± 2.6 m/s
398.14 K, 360010 kPa | – | 2124 ± 2.6 m/s
398.14 K, 389950 kPa | – | 2182.2 ± 2.7 m/s
398.15 K, 1020 kPa | 633.06 ± 0.64 kg/m3 | –
398.15 K, 5020 kPa | 639.53 ± 0.65 kg/m3 | –
398.15 K, 5030 kPa | 639.58 ± 0.65 kg/m3 | –
398.15 K, 10050 kPa | 646.89 ± 0.67 kg/m3 | –
398.15 K, 15070 kPa | 653.53 ± 0.7 kg/m3 | –
398.15 K, 20020 kPa | 659.49 ± 0.72 kg/m3 | –
398.15 K, 25030 kPa | 665.05 ± 0.75 kg/m3 | –
398.15 K, 30050 kPa | 670.22 ± 0.78 kg/m3 | –
398.15 K, 35050 kPa | 675.1 ± 0.82 kg/m3 | –
398.15 K, 40020 kPa | 679.63 ± 0.85 kg/m3 | –
398.15 K, 45070 kPa | 683.97 ± 0.89 kg/m3 | –
398.15 K, 50020 kPa | 688.07 ± 0.92 kg/m3 | –
398.15 K, 55040 kPa | 692.01 ± 0.96 kg/m3 | –
398.15 K, 60030 kPa | 695.72 ± 0.99 kg/m3 | –
398.15 K, 65040 kPa | 699.37 ± 1 kg/m3 | –
423.14 K, 1110 kPa | – | 747.67 ± 2.1 m/s
423.14 K, 1120 kPa | – | 747.72 ± 2.1 m/s
423.14 K, 29690 kPa | – | 1013.6 ± 1.8 m/s
423.14 K, 60210 kPa | – | 1199.1 ± 1.7 m/s
423.14 K, 90050 kPa | – | 1341 ± 1.7 m/s
423.14 K, 120570 kPa | – | 1462.7 ± 1.8 m/s
423.14 K, 150110 kPa | – | 1565.4 ± 1.9 m/s
423.14 K, 180160 kPa | – | 1658.8 ± 2 m/s
423.14 K, 210180 kPa | – | 1744 ± 2.2 m/s
423.14 K, 239990 kPa | – | 1822.3 ± 2.3 m/s
423.14 K, 270120 kPa | – | 1895.7 ± 2.4 m/s
423.14 K, 299980 kPa | – | 1964.4 ± 2.4 m/s
423.14 K, 330040 kPa | – | 2029.4 ± 2.5 m/s
423.14 K, 360020 kPa | – | 2089.7 ± 2.6 m/s
423.14 K, 389720 kPa | – | 2146.1 ± 2.7 m/s
423.15 K, 1020 kPa | 610.45 ± 0.65 kg/m3 | –
423.15 K, 5030 kPa | 618.47 ± 0.66 kg/m3 and 618.42 ± 0.66 kg/m3 | –
423.15 K, 10030 kPa | 627.15 ± 0.68 kg/m3 | –
423.15 K, 15030 kPa | 634.86 ± 0.71 kg/m3 | –
423.15 K, 20040 kPa | 641.8 ± 0.74 kg/m3 | –
423.15 K, 25040 kPa | 648.1 ± 0.77 kg/m3 | –
423.15 K, 30020 kPa | 653.92 ± 0.8 kg/m3 | –
423.15 K, 35050 kPa | 659.35 ± 0.84 kg/m3 | –
423.15 K, 40020 kPa | 664.4 ± 0.87 kg/m3 | –
423.15 K, 45020 kPa | 669.15 ± 0.91 kg/m3 | –
423.15 K, 50040 kPa | 673.7 ± 0.95 kg/m3 | –
423.15 K, 55020 kPa | 677.97 ± 0.98 kg/m3 | –
423.15 K, 60030 kPa | 682.03 ± 1 kg/m3 | –
423.15 K, 65040 kPa | 685.95 ± 1.1 kg/m3 | –
448.15 K, 1000 kPa | 586.37 ± 0.66 kg/m3 | –
448.15 K, 1040 kPa | – | 660.9 ± 2.3 m/s
448.15 K, 5020 kPa | 596.41 ± 0.67 kg/m3 and 596.46 ± 0.67 kg/m3 | –
448.15 K, 10040 kPa | 607.05 ± 0.69 kg/m3 | –
448.15 K, 15010 kPa | 616.06 ± 0.72 kg/m3 | –
448.15 K, 20010 kPa | 624 ± 0.75 kg/m3 | –
448.15 K, 25040 kPa | 631.27 ± 0.79 kg/m3 | –
448.15 K, 30030 kPa | 637.78 ± 0.82 kg/m3 | –
448.15 K, 30440 kPa | – | 960.29 ± 1.9 m/s
448.15 K, 35030 kPa | 643.8 ± 0.86 kg/m3 | –
448.15 K, 40010 kPa | 649.38 ± 0.9 kg/m3 | –
448.15 K, 45050 kPa | 654.67 ± 0.93 kg/m3 | –
448.15 K, 50020 kPa | 659.58 ± 0.97 kg/m3 | –
448.15 K, 55040 kPa | 664.24 ± 1 kg/m3 | –
448.15 K, 60030 kPa | 668.62 ± 1.1 kg/m3 | –
448.15 K, 60490 kPa | – | 1150.5 ± 1.7 m/s
448.15 K, 65020 kPa | 672.85 ± 1.1 kg/m3 | –
448.15 K, 90220 kPa | – | 1296 ± 1.7 m/s
448.15 K, 120320 kPa | – | 1418.8 ± 1.8 m/s
448.15 K, 150280 kPa | – | 1525 ± 1.9 m/s
448.15 K, 180150 kPa | – | 1619.4 ± 2 m/s
448.15 K, 209900 kPa | – | 1704.9 ± 2.1 m/s
448.15 K, 239920 kPa | – | 1784.3 ± 2.2 m/s
448.15 K, 270080 kPa | – | 1858.4 ± 2.3 m/s
448.15 K, 299830 kPa | – | 1929.8 ± 2.4 m/s
448.15 K, 330050 kPa | – | 1995.9 ± 2.5 m/s
448.15 K, 359980 kPa | – | 2059.2 ± 2.6 m/s
448.15 K, 390310 kPa | – | 2115.1 ± 2.6 m/s
473.15 K, 1010 kPa | – | 574.55 ± 2.6 m/s
473.15 K, 5010 kPa | 573.14 ± 0.69 kg/m3 | –
473.15 K, 10040 kPa | 586.15 ± 0.71 kg/m3 | –
473.15 K, 15040 kPa | 596.86 ± 0.74 kg/m3 | –
473.15 K, 20020 kPa | 606.05 ± 0.77 kg/m3 | –
473.15 K, 25050 kPa | 614.28 ± 0.81 kg/m3 | –
473.15 K, 30020 kPa | 621.6 ± 0.84 kg/m3 | –
473.15 K, 30430 kPa | – | 906.04 ± 1.9 m/s
473.15 K, 35030 kPa | 628.3 ± 0.88 kg/m3 | –
473.15 K, 40050 kPa | 634.51 ± 0.92 kg/m3 | –
473.15 K, 45050 kPa | 640.25 ± 0.96 kg/m3 | –
473.15 K, 50040 kPa | 645.6 ± 1 kg/m3 | –
473.15 K, 55020 kPa | 650.62 ± 1 kg/m3 | –
473.15 K, 60010 kPa | 655.39 ± 1.1 kg/m3 | –
473.15 K, 60390 kPa | – | 1104.6 ± 1.6 m/s
473.15 K, 65010 kPa | 659.92 ± 1.1 kg/m3 | –
473.15 K, 90200 kPa | – | 1255.4 ± 1.7 m/s
473.15 K, 120100 kPa | – | 1381 ± 1.8 m/s
473.15 K, 150230 kPa | – | 1490.6 ± 1.9 m/s
473.15 K, 180260 kPa | – | 1587.6 ± 2 m/s
473.15 K, 210230 kPa | – | 1675.8 ± 2.1 m/s
473.15 K, 240070 kPa | – | 1755.4 ± 2.2 m/s
473.15 K, 270130 kPa | – | 1830.8 ± 2.3 m/s
473.15 K, 300080 kPa | – | 1901.9 ± 2.4 m/s
473.15 K, 330030 kPa | – | 1964.8 ± 2.5 m/s
473.15 K, 360070 kPa | – | 2026.3 ± 2.6 m/s
473.15 K, 390060 kPa | – | 2084 ± 2.6 m/s
